Molecules are shown by their SMILES.

Turning to `CC1(C)OC(=S)Nc2ccc(Br)cc21` [Example 10, 6-Bromo-4,4-dimethyl-1,4-dihydro-benzo[d][1,3]oxazin-2-thione], the melting point (usually the temperature, or range, at which the solid turns liquid) is 221 to 222.5 °C. To `CC1OC(=S)Nc2ccc(-c3cccc(F)c3)cc21` (stereo not shown) [Example 15, 6-(3-fluorophenyl)-4-methyl-1,4-dihydro-2H-3,1-benzoxazine-2-thione] belongs 173 to 174 °C; to `CC(C)(C)OC(=O)n1c(C#N)ccc1-c1ccc2c(c1)C(C)(C)OC(=S)N2` [Example 17, tert-Butyl 2-cyano-5-(4,4-dimethyl-2-thioxo-1,4-dihydro-2H-3,1-benzoxazin-6-yl)-1H-pyrrole-1-carboxylate], 165 to 167 °C; to `CC1(C)OC(=S)Nc2ccc(-c3ccc(C#N)[nH]3)cc21` [Example 18, 5(4,4-Dimethyl-2-thioxo-1,4-dihydro-2H-3,1-benzoxazin-6-yl)-1H-pyrrole-2-carbonitrile], 261 to 262 °C. `CC1(C)OC(=S)Nc2ccc(-c3cccc(CC#N)n3)cc21` [Example 19, [6-(4,4-dimethyl-2-thioxo-1,4-dihydro-2H-3,1-benzoxazin-6-yl)pyridin-2-yl]acetonitrile] showed a melting point of 215 to 217 °C. As for `CC1(C)OC(=S)Nc2ccc(-c3cc(C#N)cs3)cc21` [Example 22, 5-(4,4-Dimethyl-2-thioxo-1,4-dihydro-2H-benzo[d][1,3]oxazin-6-yl)thiophene-3-carbonitrile], the figure is 258 to 259 °C; as for `N#Cc1cc(-c2ccc3c(c2)C2(CCCCC2)OC(=S)N3)cs1` [Example 23, 4-(1,2-Dihydro-2-thioxospiro[4H-3,1-benzoxazin-4,1-cyclohexan]-6-yl)-2-thiophenecarbonitrile], 225 to 227 °C.

`CCn1c(C#N)ccc1-c1ccc2c(c1)C(C)(C)OC(=S)N2` [Example 23, 5-(4,4-dimethyl-2-thioxo-1,4-dihydro-2H-3,1-benzoxazin-6-yl)-1-ethyl-1H-pyrrole-2-carbonitrile] showed a melting point of 212 to 213 °C. As for `CC1(C)OC(=S)Nc2ccc(-c3cncc(Br)c3)cc21` [Example 26, 6-(5Bromopyridin-3-yl)-4,4-dimethyl-1,4-dihydro-2H-3,1-benzoxazine-2-thione], the figure is 252 to 253 °C; as for `Cc1cc(Br)cc(-c2ccc3c(c2)C(C)(C)OC(=S)N3)c1` [Example 28, 6-(3-Bromo-5-methylphenyl)-4,4-dimethyl-1,4-dihydro-2H-3,1-benzoxazine-2-thione], 183 to 184 °C. `CC1(C)OC(=S)Nc2ccc(-c3cc(Br)cc(OC(F)(F)F)c3)cc21` [Example 29, 6-(3-Bromo-5trifluoromethoxyphenyl)-4,4-dimethyl-1,4-dihydro-2H-3,1-benzoxazine-2-thione] returned a melting point of 192 to 193 °C.

Compound `N#Cc1cc(F)cc(-c2ccc3c(c2)C2(CCCCC2)OC(=S)N3)c1` [Example 30, 3-(1,2-Dihydro-2-thioxospiro[4H-3,1-benzoxazine-4,1-cyclohexan]-6-yl)-5-fluorobenzonitrile] displayed a melting point of 235 to 237 °C.

With `Cc1cc(C#N)cc(-c2ccc3c(c2)C(C)(C)OC(=S)N3)c1` [Example 31, 3-(4,4-Dimethyl-2-thioxo-1,4-dihydro-2H-3,1-benzoxazin-6-yl)-5-methylbenzonitrile], the melting point was in the range of 230 to 231 °C. In turn, `CC1(C)OC(=S)Nc2ccc(-c3cc(Cl)cc(Cl)c3)cc21` [Example 32, 6-(3,5-Dichlorophenyl)-4,4-dimethyl-1,4-dihydro-2H-3,1-benzoxazine-2-thione] returned a melting point of 206 to 208 °C. To `CC1(C)OC(=S)Nc2ccc(-c3ccc(C#N)o3)cc21` [Example 34, 5-(4,4-Dimethyl-2-thioxo-1,4-dihydro-2H-3,1-benzoxazin-6-yl)-2-furonitrile] belongs 200 °C (dec.); to `CCC1(CC)OC(=S)Nc2ccc(-c3cccc([N+](=O)[O-])c3)cc21` [Example 35, 4,4Diethyl-6-(3-nitrophenyl)-1,4-dihydro-2H-3,1-benzoxazine2-thione], 180 to 181 °C. The compound `CC1(c2ccccc2)OC(=S)Nc2ccc(-c3cccc(Cl)c3)cc21` (stereo not shown) [Example 36, 6-(3-Chlorophenyl)-4-methyl-4-phenyl-1,4-dihydro-2H-3,1-benzoxazine-2-thione] returned a melting point of 202 to 203 °C. In the case of `C=CCC1(C)OC(=S)Nc2ccc(-c3cccc(Cl)c3)cc21` (stereo not shown) [Example 37, 4-Allyl-6-(3-chlorophenyl)-4-methyl-1,4-dihydro-2H-3,1-benzoxazine2-thione], the melting point was 150 to 151 °C. To `CC1(C)OC(=S)Nc2ccc(-c3cc(Cl)cc(C#N)c3)cc21` [Example 38, 3-Chloro-5-(4,4-dimethyl-2-thioxo-1,4-dihydro-2H-3,1-benzoxazin-6-yl)benzonitrile] belongs 249 to 251 °C; to `CC1(C)OC(=S)Nc2ccc(-c3cc(F)cc(F)c3)cc21` [Example 39, 6-(3,5-Difluorophenyl)-4,4-dimethyl-1,4-dihydro-2H-3,1-benzoxazine-2-thione], 224 to 225 °C. As for `COc1cc(F)cc(-c2ccc3c(c2)C(C)(C)OC(=S)N3)c1` [Example 40, 6-(3-Fluoro-5methoxyphenyl)-4,4-dimethyl-1,4-dihydro-2H-3,1-benzoxazine-2-thione], the figure is 170 to 171 °C; as for `COc1cc(C#N)cc(-c2ccc3c(c2)C(C)(C)OC(=S)N3)c1` [Example 41, 3-(4,4-Dimethyl-2-thioxo-1,4-dihydro2H-3,1-benzoxazin-6-yl)-5-methoxybenzonitrile], 201 to 202 °C. To `CC1(C)OC(=S)Nc2ccc(-c3cccc(F)c3)cc21` [Example 42, 6-(3-Fluorophenyl)-4,4-dimethyl-1,4-dihydro-2H-3,1-benzoxazine-2-thione] belongs 194 to 195 °C; to `CC1(C)OC(=S)Nc2ccc(-c3ccccc3F)cc21` [Example 44, 6-(2-Fluorophenyl)-4,4-dimethyl-1,4-dihydro-2H-3,1-benzoxazine-2-thione], 171 to 173 °C.

On to `CC1(C)OC(=S)Nc2ccc(-c3ccc(F)c(F)c3)cc21` [Example 45, 6-(3,4-Difluorophenyl)-4,4-dimethyl-1,4-dihydro-2H-3,1-benzoxazine-2-thione], for which the melting point fell in the range of 209 to 211 °C. Take `CC1(C)OC(=S)Nc2ccc(-c3ccc(F)cc3)cc21` [Example 46, 6(4-Fluorophenyl)-4,4-dimethyl-1,4-dihydro-2H-3,1-benzoxazine-2-thione]: the melting point lay in the range of 221 to 223 °C. To `CC1(C)OC(=S)Nc2ccc(-c3cccc(F)c3F)cc21` [Example 48, 6-(2,3-Difluorophenyl)-4,4-dimethyl-1,4-dihydro-2H-3,1-benzoxazine-2-thione] belongs 197 to 198 °C. As to `CC1(C)OC(=S)Nc2c(Br)cc(-c3cc(F)cc(C#N)c3)cc21` [Example 49, 3-(8-Bromo-4,4-dimethyl-2-thioxo-1,4-dihydro-2H-3,1-benzoxazin-6-yl)-5-fluorobenzonitrile], the melting point is 216 to 217 °C. To `CC1(C)OC(=S)Nc2ccc(-c3cccc([N+](=O)[O-])c3)cc21` [Example 50, 4,4-Dimethyl-6-(3-nitrophenyl)-1,4-dihydro-2H-3,1-benzoxazine-2-thione] belongs 224 to 226 °C; to `CCC1(CC)OC(=S)Nc2ccc(-c3cccc(Cl)c3)cc21` [Example 51, 6-(3-Chlorophenyl)-4,4-diethyl-1,4-dihydro-2H-3,1-benzoxazine-2-thione], 148 to 150 °C.

As for `COc1cccc(-c2ccc3c(c2)C(C)(C)OC(=S)N3)c1` [Example 52, 6-(3-Methoxyphenyl)-4,4-dimethyl-1,4-dihydro-2H-3,1-benzoxazine-2-thione], the melting point lay within 142 to 143 °C. To `CC1(C)OC(=S)Nc2ccc(-c3ccccc3Cl)cc21` [Example 53, 6-(2-Chlorophenyl)-4,4-dimethyl-1,4-dihydro-2H-3,1-benzoxazine-2-thione] belongs 171 to 172 °C; to `CC1(C)OC(=S)Nc2ccc(-c3cc(F)cc(Br)c3)cc21` [Example 55, 6-(3-Bromo-5-fluorophenyl)-4,4-dimethyl-1,4-dihydro-2H-3,1-benzoxazine-2-thione], 221 to 222 °C; to `CC1(C)OC(=S)Nc2ccc(-c3ccc(C#N)s3)cc21` [Example 56, 5-(4,4-Dimethyl-2-thioxo-1,4-dihydro-2H-3,1-benzoxazin-6-yl)thiophene-2-carbonitrile], 242 to 244 °C. On to `N#Cc1cccc(-c2ccc3c(c2)C2(CCCCC2)OC(=S)N3)c1` [Example 58, 3(1,2-Dihydro-2-thioxospiro[4H-3,1-benzoxazine4,1-cyclohexan]-6-yl)benzonitrile], for which the melting point was in the range of 222 to 224 °C. In the case of `Cc1cc(C#N)sc1-c1ccc2c(c1)C1(CCCCC1)OC(=S)N2` [Example 59, 5-(1,2-Dihydro-2-thioxospiro [4H-3,1-benzoxazine-4,1-cyclohexan]-6-yl)-4-methyl-2-thiophenecarbonitrile], the melting point fell in the range of 199 to 201 °C. As for `N#Cc1ccc(-c2ccc3c(c2)C2(CCCCC2)OC(=S)N3)s1` [Example 60, 5-(1,2-Dihydro-2-thioxospiro[4H-3,1-benzoxazine-4,1-cyclohexan]-6yl)-2-thiophenecarbonitrile], the figure is 232 to 233 °C; as for `CC1(C)OC(=S)Nc2ccc(-c3ccc(F)c(Cl)c3)cc21` [Example 61, 6-(3-Chloro-4-fluorophenyl)-4,4-dimethyl-1,4-dihydro-2H-3,1-benzoxazine-2-thione], 196 to 197 °C; as for `CCCc1cc(C#N)sc1-c1ccc2c(c1)C(C)(C)OC(=S)N2` [Example 62, 5-(4,4-Dimethyl-2-thioxo-1,4-dihydro-2H-3,1-benzoxazin6-yl)-4-propylthiophene2-carbonitrile], 174 to 175 °C. In turn, `CC1(C)OC(=S)Nc2ccc(-c3coc(C#N)c3)cc21` [Example 63, 4-(4,4-Dimethyl-2-thioxo-1,4-dihydro-2H-3,1-benzoxazin-6-yl)-2-furonitrile] yielded a melting point of 214 to 216 °C.

(Values after US6436929B1 (Wyeth, priority 1999, dated 2002).)
